Where “and” joins values, the source holds several entries; their conditions need not be identical. Equal values may be shown once.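 1) Cells in 96-well plates. 2) Compound, 48 h, 5 concentrations. 3) Linear interpolation between surrounding doses. 4) Unreached endpoint = highest concentration. The concentration for 50% growth inhibition is given as GI50. TGI: concentration producing complete growth inhibition.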
How the values were obtained:
Experiment in all cases: NCI tumour cell line growth inhibition, 48 h
HCT-116 colon = tested on: HCT-116 colon
HOP-18 NSCLC = tested on: HOP-18 NSCLC
HOP-62 NSCLC = tested on: HOP-62 NSCLC
IGROV1 ovarian = tested on: IGROV1 ovarian
M14 melanoma = tested on: M14 melanoma
SF-539 CNS = tested on: SF-539 CNS
SNB-78 CNS = tested on: SNB-78 CNS
UACC-257 melanoma = tested on: UACC-257 melanoma
CCRF-CEM leukemia = tested on: CCRF-CEM leukemia
EKVX NSCLC = tested on: EKVX NSCLC
BT-549 breast = tested on: BT-549 breast

Q: With `O=C1C=CC(=O)c2c(O)c(NCCOCCO)c(Cl)c(O)c21` as the compound, how does the TGI (HCT-116 colon) read?
A: 8.32 µM

Q: And the TGI (HOP-18 NSCLC)?
A: 29.1 µM

Q: And the TGI (HOP-62 NSCLC)?
A: 34.2 µM

Q: What about the TGI (IGROV1 ovarian) of the same compound?
A: 18.1 µM

Q: And the TGI (M14 melanoma)?
A: 23.5 µM

Q: And the TGI (SF-539 CNS)?
A: 15 µM

Q: What about the TGI (SNB-78 CNS) of the same compound?
A: 30.2 µM

Q: What about the TGI (UACC-257 melanoma) of the same compound?
A: 8.34 µM

Q: Which results are given for `COc1cccc(N[C@@H]2c3cc4c(cc3C(c3cc(OC)c(O)c(OC)c3)[C@H]3C(=O)OCC32)OCO4)c1` (stereo not given in full)?
A: TGI (CCRF-CEM leukemia): 2.69 µM; TGI (EKVX NSCLC): 14.9 µM; TGI (HCT-116 colon): 18.7 µM; TGI (HOP-18 NSCLC): 21.7 µM; TGI (HOP-62 NSCLC): 0.671 µM; TGI (IGROV1 ovarian): 33.8 µM; TGI (SF-539 CNS): 2.52 µM; TGI (SNB-78 CNS): > 100 µM; TGI (UACC-257 melanoma): 34.3 µM

Q: How did the TGI (BT-549 breast) turn out when `CC1=C2C(=CO[C@H](C)[C@H]2C)C(=O)C(C(=O)O)=C1O` was run?
A: 37.1 µM

Q: What about the GI50 (CCRF-CEM leukemia) of the same compound?
A: 27.7 µM

Q: And the TGI (CCRF-CEM leukemia)?
A: > 88.7 µM and 45.9 µM

Q: What about the GI50 (EKVX NSCLC) of the same compound?
A: 28.9 µM

Q: And the TGI (EKVX NSCLC)?
A: 83.6 µM and 63.2 µM

Q: What about the TGI (HCT-116 colon) of the same compound?
A: 82.2 µM and 78.5 µM

Q: What about the TGI (HOP-18 NSCLC) of the same compound?
A: 57.9 µM

Q: And the GI50 (HOP-62 NSCLC)?
A: 29 µM

Q: What about the TGI (HOP-62 NSCLC) of the same compound?
A: 44.2 µM and 79.3 µM

Q: What about the TGI (IGROV1 ovarian) of the same compound?
A: 69.6 µM and 49.4 µM

Q: And the TGI (M14 melanoma)?
A: 60.9 µM

Q: And the GI50 (SF-539 CNS)?
A: 23.9 µM

Q: And the TGI (SF-539 CNS)?
A: 30.3 µM and 59.2 µM

Q: What about the TGI (SNB-78 CNS) of the same compound?
A: 82.8 µM

Q: What about the TGI (UACC-257 melanoma) of the same compound?
A: > 87.8 µM

Q: How did the TGI (CCRF-CEM leukemia) turn out when `COc1cccc(C=O)c1[O-].[O]=[U](=[O])([OH2+])[OH2+]` was run?
A: > 100 µM

Q: And the TGI (EKVX NSCLC)?
A: > 100 µM

Q: What about the TGI (HCT-116 colon) of the same compound?
A: > 100 µM

Q: What about the TGI (HOP-18 NSCLC) of the same compound?
A: 88.9 µM

Q: What about the TGI (HOP-62 NSCLC) of the same compound?
A: > 100 µM

Q: And the TGI (IGROV1 ovarian)?
A: > 100 µM

Q: What about the TGI (M14 melanoma) of the same compound?
A: > 100 µM

Q: And the TGI (SF-539 CNS)?
A: 64.9 µM

Q: What about the TGI (SNB-78 CNS) of the same compound?
A: > 100 µM

Q: What about the TGI (UACC-257 melanoma) of the same compound?
A: > 100 µM

Q: For `CC1(C)CC2(CC(C)(C)N1O)NC(=O)OC2=O`, which TGI (CCRF-CEM leukemia) is on record?
A: > 100 µM

Q: What about the TGI (EKVX NSCLC) of the same compound?
A: > 100 µM

Q: And the TGI (HCT-116 colon)?
A: > 100 µM

Q: What about the TGI (HOP-18 NSCLC) of the same compound?
A: > 100 µM

Q: And the TGI (HOP-62 NSCLC)?
A: > 100 µM

Q: And the TGI (IGROV1 ovarian)?
A: > 100 µM

Q: What about the TGI (SF-539 CNS) of the same compound?
A: > 100 µM

Q: What about the TGI (SNB-78 CNS) of the same compound?
A: > 100 µM

Q: And the TGI (UACC-257 melanoma)?
A: > 100 µM

Q: How did the TGI (CCRF-CEM leukemia) turn out when `NCc1cccc(O)c1O` was run?
A: > 100 µM

Q: And the TGI (EKVX NSCLC)?
A: > 100 µM

Q: And the TGI (HCT-116 colon)?
A: > 100 µM

Q: What about the TGI (HOP-18 NSCLC) of the same compound?
A: > 100 µM

Q: What about the TGI (HOP-62 NSCLC) of the same compound?
A: > 100 µM

Q: And the TGI (M14 melanoma)?
A: > 100 µM

Q: What about the TGI (SNB-78 CNS) of the same compound?
A: > 100 µM

Q: And the TGI (UACC-257 melanoma)?
A: > 100 µM

Q: Which results are given for `O=C1c2c(O)cccc2-c2nn(CCNCCO)c3ccc(NCCNCCO)c1c23`?
A: TGI (BT-549 breast): 1.42 µM; TGI (CCRF-CEM leukemia): 0.0631 µM; TGI (EKVX NSCLC): 4.8 µM; TGI (HCT-116 colon): 2.75 µM; TGI (HOP-18 NSCLC): 5.41 µM; TGI (HOP-62 NSCLC): 0.63 µM; TGI (IGROV1 ovarian): 5.8 µM; TGI (M14 melanoma): 2.02 µM; TGI (SF-539 CNS): 1.1 µM; TGI (SNB-78 CNS): 5.99 µM; TGI (UACC-257 melanoma): 5.69 µM

Q: Which results are given for `O=C(c1cccs1)N1CCN(C(=O)c2cccs2)C1=S`?
A: TGI (BT-549 breast): 14.9 µM; TGI (CCRF-CEM leukemia): 6.87 µM; TGI (EKVX NSCLC): 27.8 µM; TGI (HCT-116 colon): 21.7 µM; TGI (HOP-62 NSCLC): 18.8 µM; TGI (IGROV1 ovarian): 19.6 µM; TGI (M14 melanoma): 19 µM; TGI (SF-539 CNS): 4.84 µM; TGI (UACC-257 melanoma): 22.9 µM

Q: With `Cc1ccccc1-c1nc2c(C(=O)NCCN(C)C)cccc2[nH]1` as the compound, how does the TGI (CCRF-CEM leukemia) read?
A: > 100 µM

Q: And the TGI (EKVX NSCLC)?
A: > 100 µM

Q: And the TGI (HCT-116 colon)?
A: > 100 µM

Q: And the TGI (HOP-18 NSCLC)?
A: 54.8 µM

Q: What about the TGI (HOP-62 NSCLC) of the same compound?
A: > 87.3 µM

Q: What about the TGI (IGROV1 ovarian) of the same compound?
A: > 100 µM

Q: What about the TGI (SF-539 CNS) of the same compound?
A: > 100 µM

Q: What about the TGI (SNB-78 CNS) of the same compound?
A: > 100 µM

Q: And the TGI (UACC-257 melanoma)?
A: > 100 µM

Q: For `CN(C)CCCNc1ccc2nnn3c4ccc(O)cc4c(=O)c1c23`, which TGI (BT-549 breast) is on record?
A: 33.9 µM

Q: What about the TGI (CCRF-CEM leukemia) of the same compound?
A: 38.2 µM

Q: What about the TGI (EKVX NSCLC) of the same compound?
A: 25.3 µM

Q: And the TGI (HCT-116 colon)?
A: 16 µM

Q: What about the TGI (HOP-18 NSCLC) of the same compound?
A: 29.1 µM

Q: What about the TGI (HOP-62 NSCLC) of the same compound?
A: 17.6 µM

Q: And the TGI (IGROV1 ovarian)?
A: 17.9 µM

Q: And the TGI (M14 melanoma)?
A: 21 µM

Q: What about the TGI (SF-539 CNS) of the same compound?
A: 19.6 µM

Q: What about the TGI (SNB-78 CNS) of the same compound?
A: 20.7 µM

Q: What about the TGI (UACC-257 melanoma) of the same compound?
A: 29.8 µM

Q: With `O=C(CCN1CCN2c3ccccc3CCC2C1)c1ccc(F)cc1` (stereo not given) as the compound, how does the TGI (BT-549 breast) read?
A: 50 µM

Q: And the TGI (CCRF-CEM leukemia)?
A: > 100 µM

Q: What about the TGI (EKVX NSCLC) of the same compound?
A: 58.5 µM

Q: What about the TGI (HCT-116 colon) of the same compound?
A: > 100 µM

Q: And the TGI (HOP-62 NSCLC)?
A: 52.8 µM

Q: And the TGI (IGROV1 ovarian)?
A: 47.9 µM

Q: What about the TGI (M14 melanoma) of the same compound?
A: > 100 µM

Q: What about the TGI (SF-539 CNS) of the same compound?
A: 39.9 µM

Q: And the TGI (UACC-257 melanoma)?
A: 97.1 µM

Q: Which TGI (BT-549 breast) does the source give for `Nc1nc(Cl)cc(NC23CC4CC(CC(C4)C2)C3)n1` here?
A: > 100 µM

Q: What about the TGI (CCRF-CEM leukemia) of the same compound?
A: > 100 µM

Q: And the TGI (EKVX NSCLC)?
A: > 100 µM

Q: And the TGI (HCT-116 colon)?
A: > 100 µM

Q: And the TGI (HOP-62 NSCLC)?
A: > 100 µM

Q: What about the TGI (IGROV1 ovarian) of the same compound?
A: > 100 µM

Q: What about the TGI (M14 melanoma) of the same compound?
A: > 100 µM

Q: What about the TGI (SF-539 CNS) of the same compound?
A: > 100 µM

Q: What about the TGI (UACC-257 melanoma) of the same compound?
A: > 100 µM

Q: Which TGI (BT-549 breast) does the source give for `CCOC(=O)c1cc2c([N+](=O)[O-])c(N)ccc2s1` here?
A: > 100 µM

Q: What about the TGI (CCRF-CEM leukemia) of the same compound?
A: > 100 µM

Q: What about the TGI (EKVX NSCLC) of the same compound?
A: > 100 µM

Q: What about the TGI (HCT-116 colon) of the same compound?
A: > 100 µM

Q: And the TGI (HOP-62 NSCLC)?
A: > 100 µM

Q: What about the TGI (IGROV1 ovarian) of the same compound?
A: > 100 µM

Q: And the TGI (M14 melanoma)?
A: > 100 µM

Q: What about the TGI (SF-539 CNS) of the same compound?
A: > 100 µM

Q: And the TGI (UACC-257 melanoma)?
A: > 100 µM

Q: How did the TGI (BT-549 breast) turn out when `C=C=C(CC(CC(=C)Br)(C(=O)OC)C(=O)OC)S(=O)(=O)c1ccccc1` was run?
A: 3.18 µM

Q: And the TGI (CCRF-CEM leukemia)?
A: > 100 µM

Q: And the TGI (EKVX NSCLC)?
A: 10.8 µM

Q: What about the TGI (HCT-116 colon) of the same compound?
A: 2.22 µM

Q: What about the TGI (HOP-62 NSCLC) of the same compound?
A: 12.4 µM

Q: And the TGI (IGROV1 ovarian)?
A: 5.52 µM

Q: What about the TGI (M14 melanoma) of the same compound?
A: 4.3 µM

Q: What about the TGI (SF-539 CNS) of the same compound?
A: 3.33 µM

Q: And the TGI (UACC-257 melanoma)?
A: 5.88 µM

From PubChem BioAssay (NCI)
